Assay results reported in PMC3157365 (Journal of medicinal chemistry, 2008).

Key:
[1] = target: hD2LR (Homo sapiens, UniProt P14416); experiment: Displacement of 125I-IABN in HEK 293 cells transfected with hD2LR; format: binding; conditions: for decrease in binding at D2R compared to the piperidinol (unbridged) analogue: comparator from ref 28
[2] = target: hD3R (Homo sapiens, UniProt P35462); experiment: Displacement of 125I-IABN in HEK 293 cells transfected with hD3R; format: binding; conditions: vs 1
[3] = target: D2R (Homo sapiens, UniProt P14416); experiment: Functional assay at D2R; format: cell-based
[4] = target: D3R (Homo sapiens, UniProt P35462); experiment: Functional assay at D3R; format: cell-based
Sequence of D3R (P35462 whole entry): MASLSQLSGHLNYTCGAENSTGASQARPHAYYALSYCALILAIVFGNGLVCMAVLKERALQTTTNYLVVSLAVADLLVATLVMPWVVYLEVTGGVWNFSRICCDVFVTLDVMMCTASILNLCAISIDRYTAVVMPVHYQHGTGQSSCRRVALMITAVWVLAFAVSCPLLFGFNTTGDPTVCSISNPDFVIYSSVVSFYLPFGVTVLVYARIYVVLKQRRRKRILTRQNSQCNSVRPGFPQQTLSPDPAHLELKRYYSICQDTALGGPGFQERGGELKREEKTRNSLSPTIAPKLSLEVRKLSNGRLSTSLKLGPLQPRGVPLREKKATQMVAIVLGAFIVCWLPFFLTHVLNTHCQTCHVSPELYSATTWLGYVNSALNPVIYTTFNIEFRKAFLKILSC

Sequence of hD2LR (P14416 whole entry): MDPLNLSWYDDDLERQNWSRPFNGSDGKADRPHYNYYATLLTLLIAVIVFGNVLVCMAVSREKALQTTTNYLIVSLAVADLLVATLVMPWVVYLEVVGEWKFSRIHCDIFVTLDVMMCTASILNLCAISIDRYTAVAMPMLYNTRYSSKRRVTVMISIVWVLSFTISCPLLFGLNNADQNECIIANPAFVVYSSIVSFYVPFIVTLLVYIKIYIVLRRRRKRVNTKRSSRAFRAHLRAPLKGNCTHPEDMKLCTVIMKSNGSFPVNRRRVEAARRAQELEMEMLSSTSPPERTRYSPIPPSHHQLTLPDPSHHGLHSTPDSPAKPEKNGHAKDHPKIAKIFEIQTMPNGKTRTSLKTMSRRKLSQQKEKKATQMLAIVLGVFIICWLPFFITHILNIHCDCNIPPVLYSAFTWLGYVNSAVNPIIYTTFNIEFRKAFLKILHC
Sequence of D2R (P14416 whole entry): as above
Sequence of hD3R (P35462 whole entry): as the sequence (P35462 whole entry) above

Structure (SMILES): OC1(c2ccc(Cl)c(Cl)c2)CCN(Cc2c[nH]c3ccccc23)CC1 [Compound 2, reference compound]
- selectivity for the D2 receptor subtype ([1]; D2R over D3R): more than 10 fold

Structure (SMILES): O[C@]1(c2ccc(Cl)cc2)C[C@H]2CC[C@@H](C1)N2Cc1c[nH]c2ccccc12 [Compound 31, endo-8-(1H-Indol-3-ylmethyl)-3-(4-chlorophenyl)-8-azabicyclo-[3.2.1]octan-3-ol]
- decrease in affinity at D2R compared to 1 ([1]; vs 1): 3 fold
- increase in D3R binding affinity compared to the parent ligand 1 [2]: 10 fold
- functional efficacy at D2R [3]: antagonists
- functional efficacy at D3R [4]: antagonists

Structure (SMILES): O[C@@]1(c2ccc(Cl)c(Cl)c2)C[C@H]2CC[C@@H](C1)N2Cc1c[nH]c2ccccc12 [Compound 32, endo-8-(1H-Indol-3-ylmethyl)-3-(3,4-dichlorophenyl)-8-azabicyclo[3.2.1]octan-3-ol]
- functional efficacy at D3R [4]: antagonists

Structure (SMILES): CSc1ccc([C@]2(O)C[C@H]3CC[C@@H](C2)N3Cc2c[nH]c3ccccc23)cc1 [Compound 37, endo-8-(1H-Indol-3-ylmethyl)-3-(4-(methylthio)phenyl)-8-azabicyclo[3.2.1]octan-3-ol]
- decrease in binding at D2R compared to the piperidinol (unbridged) analogue [1]: 24 fold

Structure (SMILES): COc1ccc2[nH]cc(CN3[C@@H]4CC[C@H]3C[C@](O)(c3ccc(SC)cc3)C4)c2c1 [Compound 40, endo-8-(5-Methoxy-1H-indol-3-ylmethyl)-3-(4-methylthiophenyl)-8-azabicyclo[3.2.1]octan-3-ol]
- decrease in binding at D2R compared to the piperidinol (unbridged) analogue [1]: 100 fold

Structure (SMILES): O[C@@]1(c2ccc(Cl)cc2)C[C@H]2CC[C@@H](C1)N2Cc1csc2ccccc12 [Compound 41, endo-8-(Benzothien-3-ylmethyl)-3-(4-chlorophenyl)-8-azabicyclo[3.2.1]octan-3-ol]
- functional efficacy at D2R [3]: antagonists
- functional efficacy at D3R [4]: antagonists
